# According to US12447198B2, “Peptides and fragments for treating diabetes and associated metabolic diseases” (Betavive Ltd., priority 2021, dated 2025):
# What was measured:
# [1] = system: STZ-treated mice; experiment: Pancreas histology and insulin immunohistochemical staining of islets; assay type: in vivo, mouse
# Protocol: FIG. 21 depicts pancreas histology results on STZ-treated mice. […] The non-control mice were treated once a day for 10 days with a 3000 μg/kg dose of IGF-2. The mice were sacrificed on day 35 and pancreas cells were assessed as being insulin positive or negative.
# [2] = Safety/toxicity: pathology of blood samples and tissue samples from thirty organs; assay type: in vivo; conditions: end of 10 days of treatment, 24 days after termination, and 100 days after termination of 30 days of treatment
# [3] = system: STZ-treated mice; experiment: Intraperitoneal glucose tolerance test 50 days post-treatment; assay type: in vivo, mouse
# Protocol: In this experiment, four STZ-treated mice were treated with 12,000 μg/kg/day of IGF-2 (four injections of 3000 μg/kg/day) 5 days and two mice were treated for 10 days. A glucose tolerance test was performed 50 days post-treatment with IGF-2 by challenging the treated mice with a 2 grams/kg dose of glucose and determining the blood glucose level over a 180 minute time course. The blood glucose curves of the treated mice were compared to results for a saline control, and normal (nondiabetic) obese and normal (nondiabetic) lean mice based on published literature (Jorgensen et al., J. Am Assoc. Lab. Animal Sci 2017 56(1): 95-97).
# [4] = system: STZ-treated mice; experiment: Serum insulin and c-peptide levels four weeks after IGF-2 treatment; assay type: in vivo, mouse; conditions: four weeks post treatment
# Protocol: Fasting blood glucose levels (mg/dL) were determined using the Accu-Chek Performa glucometer (Roche Diagnostics, Mannheim, Germany). After approximately two weeks of stable hyperglycemia, C57BL/6 STZ mice received exogenous injections of recombinant human IGF-2 (0.3-12 mg/kg/day injection) intraperitoneally for 5-10 consecutive days. During post-treatment follow-up period and upon termination, mice were tested for: fasting glucose, body weight, glucose tolerance test (IPGTT), serum C-peptide level, serum insulin level, and full blood and histological analysis (CBC, Chemistry, Insulin IHC and H&E).
# C-peptide is a biomarker used to assess pancreatic beta cell function and is normally produced in equimolar amounts to endogenous insulin. Leighton et al., A Practical Review of C-Peptide Testing in Diabetes, Diabetes Ther. 2017 June; 8 (3): 475-487.
# [5] = system: STZ-treated mouse islets; experiment: Insulin secretion from STZ-treated mouse islets; assay type: cell-based; conditions: islets treated with 2.5 mM STZ; 48 hours after treatment; IGF-2 50 nM and 500 nM, GLP-1 100 nM and 1000 nM
# Protocol: Mouse islet cells were treated with 2.5 mM STZ and subsequently treated with either IGF-2 (FA) at 50 nM and 500 nM, or with GLP-1 at 100 nM and 1000 nM.
# [6] = system: STZ-treated mouse islets; experiment: MTT viability of STZ-treated mouse islets; assay type: cell-based; conditions: increasing concentrations
# From the text: Yellow dye MTT is converted to a purple dye by mitochondrial reductase in viable cells. Therefore, the amount of purple dye present determined by measuring optical density of cells at 570 nm serves as a measurement of cell viability.
# [7] = system: NOD mice; experiment: Islet cell staining for glucagon and insulin in NOD mice; assay type: in vivo, mouse; conditions: NOD mice treated with IGF-2 for 13 weeks
# [8] = system: β-MIN6 cells; experiment: Cell count (cell proliferation) of β-MIN6 cells; assay type: cell-based, mouse; conditions: 5 nM, 20 nM, 80 nM, 1 week treatment
# From the text: β-MIN6 cells serve as an in vitro model of mouse pancreatic islets. β-MIN6 cells were used as an in vitro model to measure the effects of treatment with IGF-2.
# [9] = system: human pancreatic islet cells; experiment: Insulin secretion of human pancreatic islet cells in response to a glucose pulse; assay type: cell-based; conditions: 50 nM for four days
# [10] = system: db/db mice; experiment: Serum insulin in db/db mice after long-term IGF-2 treatment; assay type: in vivo, mouse; conditions: 12,000 μg/kg daily dose for 68 days, measured 6.5 weeks after the end of treatment
# Protocol: In this experiment, one group of db/db mice (labeled FA X1) was injected with 3000 μg/kg of IGF-2 once a day for 68 days, a second group of db/db mice (labeled FA X4) was injected with a daily dose of 12000 μg/kg of IGF-2 divided in two injections per day for 68 days, and a third group of db/db mice was injected with saline. Serum insulin levels were measured 6.5 weeks after the end of the 68 day treatment. Treatment with the 12,000 μg/kg daily dose increased serum insulin levels by about 50% with respect to the control.
# [11] = system: mice; experiment: Blood glucose concentration kinetics of IGF-2 vs. insulin in a glucose tolerance test; assay type: in vivo, mouse; conditions: IGF-2 800 μg/kg
# From the text: IGF-2 therefore provides an effect that mimics insulin within the body, and that effect is referred to herein as an “insulinomimetic” effect. […] In this example, administering IGF-2 can provide better results than administering insulin with respect to blood glucose levels, even when only a single dose was used. Without being bound by this theory, it is possible that the IGF-2 combines with a number of binding proteins in the blood and its active free form is then released slowly from the complex.
# [12] = system: db/db mice; experiment: 14 hour fasting blood glucose in db/db mice treated with IGF-2; assay type: in vivo, mouse
# Protocol: db/db mice are bred to have a leptin deficiency, increasing susceptibility of the mice to obesity, insulin resistance, and type 2 diabetes (T2D).
# In this experiment, one group of db/db mice was injected with 3000 μg/kg/day of IGF-2 for 68 days, a second group of db/db mice was injected with 12000 μg/kg/day of IGF-2 for 66 days, and a third group of db/db mice was injected with saline once a day for 68 days.
# In one experiment (left panel), one group of db/db mice was injected with a daily dose of 12000 μg/kg of IGF-2 divided in two injections per day for 70 days, while another group of db/db mice was injected with saline. […] In another experiment (right panel), one group of db/db mice was injected with a daily dose of 12000 μg/kg of IGF-2 divided in two injections per day for 35 days, while another group of db/db mice was injected with saline.
# In one exemplary experiment, db/db mice were treated with a 12,000 μg/kg daily dose for 70 days with 70 days of follow up (during which IGF-2 was not administered). All the treated mice maintained normoglycemia for at least 50 days following treatment. In another exemplary experiment, db/db mice were treated with a 12,000 μg/kg daily dose for 35 days with 35 days of follow up (during which IGF-2 was not administered). All the treated mice maintained normoglycemia for 35 days following treatment.
substance,measurement,setting,value
insulin-like growth factor 2 [IGF-2],number of functional beta cells,"[1]; 3000 μg/kg once a day for 10 days, sacrificed on day 35, permanently cured mice",almost four fold increase
same,number of cells that test positive for insulin,"[1]; 3000 μg/kg once a day for 10 days, sacrificed on day 35, permanently cured vs non-permanently cured and saline control",significant increase
same,level of insulin in pancreas islets as compared to a naïve mouse (immunohistochemical staining),[1]; non-permanently cured mouse,lower level of insulin in its pancreas islets
same,level of insulin in pancreas islets as compared to a naïve mouse (immunohistochemical staining),[1]; permanently cured mouse,higher level of insulin in its pancreas islets
same,pathologies related to treatment in blood samples and tissue samples from thirty organs,[2],No pathologies were identified
same,number of IGF-2-treated mice permanently cured,"[3]; 12,000 μg/kg/day, four mice 5 days and two mice 10 days",Five
same,glucose levels in the glucose tolerance test,"[3]; 2 grams/kg glucose, 50 days post-treatment, Mouse O1, not permanently cured",higher than the normal obese mouse
same,response to the glucose tolerance test (blood glucose over 180 minutes),"[3]; 2 grams/kg glucose, 50 days post-treatment, the five permanently cured mice",fell between the glucose tolerance results from the literature for non-diabetic obese mice and non-diabetic lean mice
same,increase in c-peptide levels,[4]; four STZ-treated mice,12 fold
same,increase of serum insulin compared to STZ treated control mice,[4]; permanently cured mice,50%
same,insulin secretion,[5],increased in a dose dependent manner
same,"mouse islet viability (MTT, optical density at 570 nm)",[6],increased in a dose dependent manner
same,"islet cells, histological staining for glucagon and insulin",[7],fully functional islet cells
same,cell count (cell proliferation),[8],increases cell proliferation in a dose-dependent manner
same,increase of insulin secretion in response to a glucose pulse compared to untreated cells,[9],~50%
same,increase of serum insulin levels with respect to the control,[10],about 50%
same,time at which glucose levels began to rise relative to disappearance of IGF-2 from the blood,[11]; compared with FIG. 13,two hours after the IGF-2 was no longer detectable in the blood
same,glucose level after administration,"[11]; glucose tolerance test in mice, insulin 1 unit per kg",the glucose level decreased
same,time after which the recovery in glucose levels began,"[11]; single dose, insulin 1 unit per kg",after six hours
same,time following treatment for which all the treated mice maintained normoglycemia,"[12]; 12,000 μg/kg daily dose for 35 days, 35 days of follow up",35 days
same,time following treatment for which all the treated mice maintained normoglycemia,"[12]; 12,000 μg/kg daily dose for 70 days, 70 days of follow up",at least 50 days
same,14 hour fasting blood glucose levels,"[12]; FIG. 25 left panel, 12000 μg/kg daily in two injections per day for 70 days",reduced blood glucose levels (14 hour fasting blood glucose levels) to a normal range
same,14 hour fasting blood glucose levels,"[12]; FIG. 25 right panel, 12000 μg/kg daily in two injections per day for 35 days",reduced blood glucose levels (14 hour fasting blood glucose levels) to a normal range
same,14 hour fasting blood glucose levels,"[12]; first group of db/db mice (FIG. 23), 3000 μg/kg/day for 68 days",reduced blood glucose levels (14 hour fasting blood glucose levels) to a normal range
same,14 hour fasting blood glucose levels,"[12]; first group of db/db mice (FIG. 23), 12000 μg/kg/day for 66 days",reduced blood glucose levels (14 hour fasting blood glucose levels) to a normal range
same,14 hour fasting blood glucose levels,"[12]; second group of db/db mice (FIG. 24), 12,000 μg/kg/day, 68 day treatment period",reduced blood glucose levels (14 hour fasting blood glucose levels) to a normal range
